According to US7851637B2, “Compounds and methods for inhibiting the interaction of BCL proteins with binding partners” (Infinity Pharmaceuticals, Inc., priority 2004, dated 2010):
pIC50, pKi: −log10 of the molar value. Where two headings read alike, the source gives them in different places.

Columns and labels:
[1] = system: Human Pancreatic Cancer Cell Line Panc1; assay: Cell death assay (propidium iodide/Hoechst) in Panc1 cells with or without camptothecin; assay type: cell-based; conditions: 72 hours, % cell death by propidium iodide/Hoechst
Procedure: (§1) When RL-cells are exposed to isoxazolidine compounds of the present invention, the inhibitors show a dose-dependent cell-killing in the Alamar blue cytoxicity assay with IC50 values of from about 100 μM to about 1 μM (See Examples). When Panc1 cells are exposed to the isoxazolidine compounds of the present invention in combination with camptothecin, the inhibitors show a synergistic dose-dependent cell killing in the propidium iodide exclusion cell survival assay with IC50 values of from about 100 μM to about 1 μM (See Examples).
• 1) Compounds were serially diluted in DMSO from a 9 mM stock to a final concentration of 0.004 mM in a 96 well plate. • 2) Assay plates were prepared by diluting compounds 310 fold into 150 ul of medium containing 10,000 cells/well, with or without 3 uM Camptothecin, resulting in a final DMSO concentration of 0.3% and a compound concentration range from 29 uM to […] for each compound. • 3) Assay plates were incubated at 37 C, 5% CO2 for 72 hours. • 4) After 72 hours, propidium iodide and Hoechst dye were added to each well according to manufacturer's instruction. • 5) Plates were imaged on a fluorescence microscope at wavelengths Ex560/Em650 (Propidium iodide) and Ex360/Em465 (Hoechst) • 6) MetaMorph imaging software was used to determine % cell death by dividing the number of propidium iodide stained cells (dead cells) by the number of Hoechst stained cells (all cells), multipled by 100, in each field.
Panc1 invitro cellular data is presented below for various compounds of the invention.

Bcl-2 = Bcl-2 (Homo sapiens, UniProt P10415); assay: Bcl-2 binding affinity analysis (fluorescence polarization binding assay)
Bcl-2, sequence (P10415 whole entry): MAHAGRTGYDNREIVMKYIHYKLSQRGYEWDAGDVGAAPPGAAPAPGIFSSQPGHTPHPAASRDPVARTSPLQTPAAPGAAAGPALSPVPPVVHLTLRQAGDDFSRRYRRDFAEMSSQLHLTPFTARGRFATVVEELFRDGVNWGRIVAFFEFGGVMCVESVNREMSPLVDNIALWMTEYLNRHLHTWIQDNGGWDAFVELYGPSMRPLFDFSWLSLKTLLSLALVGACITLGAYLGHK
Method in brief: (§2)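 FP readout; quantitative in vitro binding format; same method applied to both anti-apoptotic proteins.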

Bcl-xL = Bcl-xL (Homo sapiens, UniProt Q07817); assay: Bcl-xL binding affinity analysis (fluorescence polarization binding assay); parameters: scale not given here
Bcl-xL, sequence (Q07817 whole entry): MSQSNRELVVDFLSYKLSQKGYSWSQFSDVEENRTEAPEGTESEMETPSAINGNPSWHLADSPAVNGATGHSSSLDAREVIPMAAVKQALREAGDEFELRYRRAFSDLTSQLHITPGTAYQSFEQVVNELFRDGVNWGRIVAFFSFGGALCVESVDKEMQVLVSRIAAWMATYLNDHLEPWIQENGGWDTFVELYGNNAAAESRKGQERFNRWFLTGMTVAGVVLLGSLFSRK
Method in brief: as §2

[2] = system: RL Human Follicular Lymphoma Cell Line; assay: Alamar blue cytotoxicity assay in RL cells; assay type: cell-based; conditions: 72 h incubation, read-out: Bcl RL Alamar Blue IC50
Procedure: as §1
• 1) Using 96 well plates, compounds were serially diluted in DMSO from 9 mM to 4 uM • 2) Assay plates were prepared by diluting samples 310 fold into 150 ul of medium containing 30,000 cells/well resulting in a final DMSO concentration of 0.3% and a concentration range from 29 uM to 0.013 uM for each compound. • 3) Plates were incubated at 37 C and 5% CO2 for 72 h • 4) After 72 h, Alamar blue reagent was added to each well and plates read according to manufacturer's instructions
In vitro cytotoxicity data for RL cells is presented below for various compounds of the invention.

[3] = Homo sapiens, PANC-1, without camptothecin, read-out: Panc1 − Cpt IC50
[4] = with 3 uM Camptothecin, read-out: Panc1 + Cpt IC50

SMILES | pKi (Bcl-2) | Bcl-XL binding affinity Ki (Bcl-xL) | pIC50 [1, 3] | pIC50 [1, 4] | pIC50 ([2]; Homo sapiens) | pIC50 [2]
CC(C)C[C@@H](CN(C)C)N(Cc1cccc(CN2O[C@@H](CO)C([C@H](C)O)[C@H]2C(=O)N[C@H]2C[C@H]3C[C@@H]([C@@H]2C)C3(C)C)c1)Cc1ccccc1O (stereo partly shown) [Compound 300] | > 6.10 | ♯ | < 5.60 | 5.60 to 5.74 | > 5.70 | –
COc1ccccc1CN(Cc1cccc(CN2OC(CO)C(C(C)O)C2C(=O)NC2CC3CC(C2C)C3(C)C)c1)C(CC(C)C)CN(C)C (stereo not shown) [Compound 301] | > 6.10 | ♯ | < 5.60 | < 5.60 | > 5.70 | –
CC(C)CC(CN(C)C)N(Cc1cccc(CN2OC(CO)C(C(C)O)C2C(=O)NC2CC3CC(C2C)C3(C)C)c1)Cc1ccccc1Br (stereo not shown) [Compound 309] | > 6.10 | ♯ | < 5.60 | 5.74 to 5.89 | > 5.70 | –
CC(C)CC(CN(C)C)N(Cc1ccccc1)Cc1cccc(CN2OC(CO)C(C(C)O)C2C(=O)NC2CC3CC(C2C)C3(C)C)c1 (stereo not shown) [Compound 311] | > 6.10 | ♯ | < 5.60 | 5.60 to 5.74 | – | 5.30 to 5.70
CC(C)CC(CN(C)C)N(Cc1cccc(CN2OC(CO)C(C(C)O)C2C(=O)NC2CC3CC(C2C)C3(C)C)c1)Cc1ccccc1F (stereo not shown) [Compound 312] | > 6.10 | ♯ | < 5.60 | < 5.60 | > 5.70 | –
CC(C)CC(CN(C)C)N(Cc1cccc(CN2OC(CO)C(C(C)O)C2C(=O)NC2CC3CC(C2C)C3(C)C)c1)Cc1ccccc1Cl (stereo not shown) [Compound 313] | > 6.10 | ♯ | 5.74 to 5.89 | 5.74 to 5.89 | > 5.70 | –
CC(C)CC(CN(C)C)N(Cc1cccc(CN2OC(CO)C(C(C)O)C2C(=O)NC2CC3CC(C2C)C3(C)C)c1)Cc1ccccc1C#N (stereo not shown) [Compound 314] | > 6.10 | ♯ | < 5.60 | < 5.60 | > 5.70 | –
CC(C)CC(CN(C)C)N(Cc1cccc(CN2OC(CO)C(C(C)O)C2C(=O)NC2CC3CC(C2C)C3(C)C)c1)Cc1ccccc1[N+](=O)[O-] (stereo not shown) [Compound 316] | > 6.10 | ♯ | < 5.60 | < 5.60 | < 5.30 | –
CC(C)CC(CN(C)C)N(Cc1cccc(CN2OC(CO)C(C(C)O)C2C(=O)NC2CC3CC(C2C)C3(C)C)c1)Cc1ccccc1OC(F)(F)F (stereo not shown) [Compound 320] | > 6.10 | ♯ | < 5.60 | 5.60 to 5.74 | > 5.70 | –
CC(C)CC(CN(C)C)N(Cc1cccc(CN2OC(CO)C(C(C)O)C2C(=O)NC2CC3CC(C2C)C3(C)C)c1)Cc1ccccc1C(F)(F)F (stereo not shown) [Compound 321] | > 6.10 | ♯ | > 5.89 | > 5.89 | > 5.70 | –
Cc1cccc(C)c1CN(Cc1cccc(CN2OC(CO)C(C(C)O)C2C(=O)NC2CC3CC(C2C)C3(C)C)c1)C(CC(C)C)CN(C)C (stereo not shown) [Compound 325] | > 6.10 | ♯ | > 5.89 | > 5.89 | > 5.70 | –
CC(C)CC(CN(C)C)N(Cc1cccc(CN2OC(CO)C(C(C)O)C2C(=O)NC2CC3CC(C2C)C3(C)C)c1)Cc1c(F)cccc1C(F)(F)F (stereo not shown) [Compound 339] | > 6.10 | ♯ | < 5.60 | < 5.60 | > 5.70 | –
C[C@@H]1[C@@H](NC(=O)[C@@H]2C([C@H](C)O)[C@H](CO)ON2Cc2cccc(CN(CCN(C)C)Cc3ccccc3Cl)c2)C[C@H]2C[C@@H]1C2(C)C (stereo partly shown) [Compound 346] | > 6.10 | ♯ | < 5.60 | < 5.60 | 5.30 to 5.70 | –
CC(O)C1C(CO)ON(Cc2cccc(CN(CCN(C)C)Cc3ccccc3Br)c2)C1C(=O)NC1CC2CC(C1C)C2(C)C (stereo not shown) [Compound 348] | > 6.10 | ♯ | < 5.60 | < 5.60 | < 5.30 | –
CC(O)C1C(CO)ON(Cc2cccc(CN(CCN(C)C)CC3=CCCCC3)c2)C1C(=O)NC1CC2CC(C1C)C2(C)C (stereo not shown) [Compound 354] | > 6.10 | ♯ | 5.60 to 5.74 | 5.74 to 5.89 | > 5.70 | –
CC(O)C1C(CO)ON(Cc2cccc(CN(CCN(C)C)Cc3ccccc3C(F)(F)F)c2)C1C(=O)NC1CC2CC(C1C)C2(C)C (stereo not shown) [Compound 357] | > 6.10 | ♯ | < 5.60 | < 5.60 | 5.30 to 5.70 | –
C[C@@H]1[C@@H](NC(=O)[C@@H]2C([C@H](C)O)[C@H](CO)ON2Cc2cccc(CN(CCN(C)C)Cc3ccc(Br)cc3)c2)C[C@H]2C[C@@H]1C2(C)C (stereo partly shown) [Compound 360] | > 6.10 | ♯ | < 5.60 | < 5.60 | < 5.30 | –

More lines, main results first:

pKi (Bcl-2) | Bcl-XL binding affinity Ki (Bcl-xL) | SMILES | pIC50 [1, 3] | pIC50 [1, 4] | pIC50 ([2]; Homo sapiens) | pIC50 [2]
> 6.10 | ♯ | CC(O)C1C(CO)ON(Cc2cccc(CN(CCN(C)C)CC3CCCC3)c2)C1C(=O)NC1CC2CC(C1C)C2(C)C (stereo not shown) [Compound 363] | < 5.60 | < 5.60 | < 5.30 | –
> 6.10 | ♯ | CC(O)C1C(CO)ON(Cc2cccc(CN(CCN(C)C)Cc3cccc(Br)c3)c2)C1C(=O)NC1CC2CC(C1C)C2(C)C (stereo not shown) [Compound 366] | 5.60 to 5.74 | 5.60 to 5.74 | 5.30 to 5.70 | –
> 6.10 | ♯ | CC(O)C1C(CO)ON(Cc2cccc(CN(CCN(C)C)Cc3ccc4ccccc4c3)c2)C1C(=O)NC1CC2CC(C1C)C2(C)C (stereo not shown) [Compound 375] | < 5.60 | < 5.60 | < 5.30 | –
> 6.10 | ♯ | CC(O)C1C(CO)ON(Cc2cccc(CN(CCN(C)C)CC3CC3)c2)C1C(=O)NC1CC2CC(C1C)C2(C)C (stereo not shown) [Compound 390] | < 5.60 | < 5.60 | < 5.30 | –
> 6.10 | ♯ | CC(O)C1C(CO)ON(Cc2cccc(CN(CCN(C)C)CC3CCOC3)c2)C1C(=O)NC1CC2CC(C1C)C2(C)C (stereo not shown) [Compound 391] | < 5.60 | < 5.60 | < 5.30 | –
> 6.10 | ♯ | CC(O)C1C(CO)ON(Cc2cccc(CN(CCN(C)C)Cc3ccoc3)c2)C1C(=O)NC1CC2CC(C1C)C2(C)C (stereo not shown) [Compound 392] | < 5.60 | < 5.60 | < 5.30 | –
> 6.10 | ♯ | C[C@@H]1[C@@H](NC(=O)[C@@H]2[C@H]([C@H](C)O)[C@H](CO)ON2Cc2cccc(NC(=O)N[C@H](CC3CCCCC3)CN(C)C)c2)C[C@H]2C[C@@H]1C2(C)C [Compound 574] | – | – | 5.30 to 5.70 | –
> 6.10 | ♯ | C[C@@H]1[C@@H](NC(=O)[C@@H]2[C@H]([C@H](C)O)[C@H](CO)ON2Cc2cccc(NC(=O)N(C)[C@@H](CC3CCCCC3)CN(C)C)c2)C[C@H]2C[C@@H]1C2(C)C [Compound 575] | – | – | 5.30 to 5.70 | –
> 6.10 | ♯ | C[C@@H]1[C@@H](NC(=O)[C@@H]2[C@H]([C@H](C)O)[C@H](CO)ON2Cc2cccc(NC(=O)N(C)[C@H](CC3CCCCC3)CN(C)C)c2)C[C@H]2C[C@@H]1C2(C)C [Compound 576] | – | – | 5.30 to 5.70 | –
> 6.10 | ♯ | C[C@@H]1[C@@H](NC(=O)[C@@H]2[C@H]([C@H](C)O)[C@H](CO)ON2Cc2cccc(NC(=O)N[C@@H](CC3CCCCC3)CN(C)C)c2)C[C@H]2C[C@@H]1C2(C)C [Compound 577] | – | – | 5.30 to 5.70 | –
> 6.10 | ♯ | C[C@@H]1[C@@H](NC(=O)[C@@H]2[C@H]([C@H](C)O)[C@H](CO)ON2Cc2cccc(N(CCCN(C)C)Cc3ccccc3C(F)(F)F)c2)C[C@H]2C[C@@H]1C2(C)C [Compound 585] | – | – | 5.30 to 5.70 | –
> 6.10 | ♯ | C[C@@H]1[C@@H](NC(=O)[C@@H]2[C@H]([C@H](C)O)[C@H](CO)ON2Cc2cccc(N(CCCN(C)C)CC3CCCCC3)c2)C[C@H]2C[C@@H]1C2(C)C [Compound 586] | – | – | 5.30 to 5.70 | –
